{
  "source": "patent EP0369453A2",
  "about": "“AGE-formation inhibitory agents” (Takeda Chemical Industries, Ltd., priority 1988, dated 1990)",
  "note": "Marks after values point to notes of the source that are not given here.",
  "data": [
    {"system": "advanced glycosylated end products (AGE)", "assay": "AGE formation inhibition: bovine serum albumin incubated with D-glucose, fluorescence measurement (method of Brownlee et al.)", "format": "biochemical", "settings": "Concentration of test specimen: 0.5 mM; bovine serum albumin 20%, D-glucose 100 mM, 0.5M phosphate buffer pH 7.4, 37° C for 7 days; fluorescence 370/440 nm; control = 100%", "experimental": "(§1) The production of advanced glycosylated end products (AGE) and its measurement were carried out in accordance with the report by Brownlee et al. [Science, 232 1629 (1986)]. Thus, bovine serum albumin (fraction V, manufactured by Wako Pure Chemical Ind. of Japan, 20%), D-glucose (100 mM) and sodium azide (3 mM) were dissolved in 0.5M phosphate buffer (pH 7.4) to prepare a reaction solution (control). A test specimen was dissolved in dimethyl sulfoxide, and the solution was added to the reaction solution to the concentrations 1 mM, 0.5 mM and 0.2 mM, respectively. These solutions were incubated at 37° C for 7 days, whereupon the solutions, before and after incubation, were diluted with phosphate buffer, followed by measurement of fluoresceces (by use of RF-510 spectrofluorimeter, manufactured by Shimadzu Seisakusho of Japan) at 370 nm of the excitation wavelength and 440 nm of the emission wavelength. The variation in fluorescence (F) was utilized to calculate the formation ratio (%) following the formula described below. In the above tests, the blind test was carried out using the reaction solution free from D-glucose. The AGE were calculated by the following equation: Formation ratio = [ F(T) - F(B)]/[ F(C) - F(B)] x 100 [formula] where F(T), F(B) and F(C) are variations in fluorescence for test specimen, blind test specimen and control, respectively.", "values": [
      {"smiles": "O=C(NC(=S)Nc1nc(-c2ccc3c(c2)CCCC3)cs1)c1ccc(F)cc1", "note": "[Example 26]", "AGE Formation Ratio (% against the control value)": "34^2) %"},
      {"smiles": "O=C(NC(=S)Nc1nc(-c2ccc3ccccc3c2)cs1)c1ccccc1", "note": "[Example 15]", "AGE Formation Ratio (% against the control value)": "46^2) %"},
      {"smiles": "O=C(NC(=S)Nc1nc(-c2ccc3c(c2)CCCC3)cs1)c1ccncc1", "note": "[Example 31]", "AGE Formation Ratio (% against the control value)": "53^2) %"},
      {"smiles": "CC(C)c1sc(NC(=S)NC(=O)c2ccccc2)nc1-c1ccc2c(c1)CCCC2", "note": "[Example 21]", "AGE Formation Ratio (% against the control value)": "19^2) %"},
      {"smiles": "O=C(NC(=S)Nc1nc(-c2ccc3c(c2)CCCC3)cs1)c1ccc2c(c1)CCCC2", "note": "[Example 60]", "AGE Formation Ratio (% against the control value)": "17^2) %"},
      {"smiles": "CCc1sc(NC(=S)NC(=O)c2ccccc2)nc1-c1ccc2c(c1)CCCC2", "note": "[Example 20]", "AGE Formation Ratio (% against the control value)": "0^2) %"},
      {"smiles": "O=C(NC(=S)Nc1nc(-c2ccc3c(c2)CCCC3)cs1)c1ccc2ccccc2c1", "note": "[Example 34]", "AGE Formation Ratio (% against the control value)": "0^2) %"},
      {"smiles": "O=C(NC(=S)Nc1nc(-c2ccc3c(c2)CCCC3)cs1)c1ccccc1", "note": "[Example 1, 1-benzoyl-3-[4-(5,6,7,8-tetrahydro-2-naphthyl)-2-thiazolyl] thiourea]", "AGE Formation Ratio (% against the control value)": "43^2) %"},
      {"smiles": "Cc1ccc(C)c(C(=O)NC(=S)Nc2nc(-c3ccc4c(c3)CCCC4)cs2)c1", "note": "[Example 42]", "AGE Formation Ratio (% against the control value)": "35^2) %"}
    ]},
    {"system": "advanced glycosylated end products (AGE)", "assay": "AGE formation inhibition: bovine serum albumin incubated with D-glucose, fluorescence measurement (method of Brownlee et al.)", "format": "biochemical", "settings": "Concentration of test specimen: 1 mM; bovine serum albumin 20%, D-glucose 100 mM, 0.5M phosphate buffer pH 7.4, 37° C for 7 days; fluorescence 370/440 nm; control = 100%", "experimental": "as §1", "values": [
      {"smiles": "O=C(NC(=S)Nc1nc(-c2ccc3c(c2)CCCC3)cs1)c1ccccc1C(F)(F)F", "note": "[Example 47]", "AGE Formation Ratio (% against the control value)": "16^1) %"},
      {"smiles": "O=C(NC(=S)Nc1nc(-c2ccc(C(F)(F)F)cc2)cs1)c1ccccc1", "note": "[Example 8]", "AGE Formation Ratio (% against the control value)": "58^1) %"},
      {"smiles": "O=C(NC(=S)Nc1nc(-c2ccc(Cl)cc2)cs1)c1ccccc1", "note": "[Example 10]", "AGE Formation Ratio (% against the control value)": "30^1) %"},
      {"smiles": "O=C(/C=C/c1ccccc1)NC(=S)Nc1nc(-c2ccc3c(c2)CCCC3)cs1", "note": "[Example 37]", "AGE Formation Ratio (% against the control value)": "49^1) %"},
      {"smiles": "Cc1ccccc1C(=O)NC(=S)Nc1nc(-c2ccc3c(c2)CCCC3)cs1", "note": "[Example 27]", "AGE Formation Ratio (% against the control value)": "0^1) %"},
      {"smiles": "O=C(NC(=S)Nc1nc(-c2ccc3c(c2)CCCC3)cs1)c1c2ccccc2cc2ccccc12", "note": "[Example 63]", "AGE Formation Ratio (% against the control value)": "54^1) %"},
      {"smiles": "O=C(NC(=S)Nc1nc(-c2ccc3c(c2)CCCC3)cs1)c1ccc(Cl)cc1", "note": "[Example 23, 1-(4-chlorobenzoyl)-3-[4-(5,6.7,8-tetrahydro-2-naphthyl-)2-thiazolyl]thiourea]", "AGE Formation Ratio (% against the control value)": "51^1) %"},
      {"smiles": "CCCCC(CC)C(=O)NC(=S)Nc1nc(-c2ccc3c(c2)CCCC3)cs1", "note": "(stereo not drawn) [Example 72]", "AGE Formation Ratio (% against the control value)": "58^1) %"},
      {"smiles": "Cc1ccc(-c2csc(NC(=S)NC(=O)c3ccccc3)n2)cc1", "note": "[Example 4]", "AGE Formation Ratio (% against the control value)": "47^1) %"},
      {"smiles": "O=C(NC(=S)Nc1nc(-c2ccc3c(c2)CCCC3)c(-c2ccccc2)s1)c1ccccc1", "note": "[Example 22]", "AGE Formation Ratio (% against the control value)": "31^1) %"},
      {"smiles": "O=C(NC(=S)Nc1nc(-c2ccc3c(c2)OCCO3)cs1)c1ccccc1", "note": "[Example 13]", "AGE Formation Ratio (% against the control value)": "45^1) %"},
      {"smiles": "COc1ccc(-c2csc(NC(=S)NC(=O)c3ccccc3)n2)cc1", "note": "[Example 11]", "AGE Formation Ratio (% against the control value)": "66^1) %"}
    ]}
  ]
}
